# In patent US6358886B1, “6-Substituted 2,4-diamino-1,3,5-triazine derivatives having at least two asymmetrically substituted carbon atoms, the production thereof, and their use as herbicides” (Bayer Aktienegesellschaft, priority 1998, dated 2002):
# How the values were obtained:
# Assay type in all cases: in vivo
# Maize = assay: Pre-emergence test/greenhouse; conditions: after three weeks, crop plant
# Method: (§1) Solvent: 5 parts by weight of acetone
# (§2) Emulsifier: 1 part by weight of alkylaryl polyglycol ether
# (§3) To produce a suitable preparation of active compound, 1 part by weight of active compound is mixed with the stated amount of solvent, the stated amount of emulsifier is added and the concentrate is diluted with water to the desired concentration.
# (§4) Seeds of the test plants are sown in normal soil. After about 24 hours, the soil is sprayed with the preparation of active compound such that the particular amounts of active compound desired are applied per unit area. The concentration of the spray liquor is chosen so that the particular amounts of active compound desired are applied in 1000 l of water/ha.
# (§5) After three weeks, the degree of damage to the plants is rated in % damage in comparison to the development of the untreated control.
# (§6) 0%=no effect (like untreated control)
# Setaria [1] = assay: Pre-emergence test/greenhouse; conditions: after three weeks
# Method: as §1, §2, §3, §4, §5, §6
# Alopecurus = assay: Pre-emergence test/greenhouse; conditions: after three weeks
# Method: as §1, §2, §3, §4, §5, §6
# Abutilon [2] = assay: Pre-emergence test/greenhouse; conditions: after three weeks
# Method: as §1, §2, §3, §4, §5, §6
# Amaranthus [3] = assay: Pre-emergence test/greenhouse; conditions: after three weeks
# Method: as §1, §2, §3, §4, §5, §6
# Galium = assay: Pre-emergence test/greenhouse; conditions: after three weeks
# Method: as §1, §2, §3, §4, §5, §6
# Sinapis [4] = assay: Pre-emergence test/greenhouse; conditions: after three weeks
# Method: as §1, §2, §3, §4, §5, §6
# weeds [5] = assay: Pre-emergence test; conditions: result in words
# Method: as §1, §2, §3, §4, §5, §6
# weeds [6] = assay: Post-emergence test; conditions: result in words
# Method: as §1, §2, §3
# (§7) Test plants which have a height of 5-15 cm are sprayed with the preparation of active compound such that the particular amounts of active compound desired are applied per unit area. The concentration of the spray liquor is chosen so that the particular amounts of active compound desired are applied in 1000 l of water/ha.
# as §5, §6
# Xanthium = assay: Post-emergence test/greenhouse; conditions: after three weeks
# Method: as §1, §2, §3, §7, §5, §6
# Setaria [7] = assay: Post-emergence test/greenhouse
# Method: as §1, §2, §3, §7, §5, §6
# Abutilon [8] = assay: Post-emergence test/greenhouse; conditions: after three weeks
# Method: as §1, §2, §3, §7, §5, §6
# Amaranthus [9] = assay: Post-emergence test/greenhouse; conditions: after three weeks
# Method: as §1, §2, §3, §7, §5, §6
# [10] = system: crop plants, such as, for example, sunflowers; assay: Pre-emergence test, crop tolerance; conditions: result in words
# Method: as §1, §2, §3, §4, §5, §6
# Sinapis [11] = assay: Post-emergence test/greenhouse; conditions: Table A-3, 1000 g of ai./ha, after three weeks
# Method: as §1, §2, §3, §7, §5, §6
# [12] = Table A-3, 1000 g of ai./ha, after three weeks
structure (smiles),measurement,setting,value
CCC(COc1cc(C)cc(C)c1)Nc1nc(N)nc([C@@H](C)O)n1 (mixture of isomers) [Example 2],"degree of damage, Maize","Maize; Table B-2, 1000 g of ai./ha",20%
same,"degree of damage, Setaria","Setaria [1]; Table B-2, 1000 g of ai./ha",100%
same,"degree of damage, Alopecurus","Alopecurus; Table B-2, 1000 g of ai./ha",100%
same,"degree of damage, Abutilon","Abutilon [2]; Table B-2, 1000 g of ai./ha",100%
same,"degree of damage, Amaranthus","Amaranthus [3]; Table B-2, 1000 g of ai./ha",80%
CCC(COc1cc(C)cc(C)c1)Nc1nc(N)nc([C@H](C)O)n1 (mixture of isomers) [Example 3],"degree of damage, Galium","Galium; Table B-3, 2000 g of ai./ha",100%
same,"degree of damage, Setaria","Setaria [1]; Table B-3, 2000 g of ai./ha",100%
same,"degree of damage, Sinapis","Sinapis [4]; Table B-3, 2000 g of ai./ha",100%
same,"degree of damage, Abutilon","Abutilon [2]; Table B-3, 2000 g of ai./ha",100%
same,"degree of damage, Amaranthus","Amaranthus [3]; Table B-3, 2000 g of ai./ha",100%
CCC(COc1cc(C)cc(C)c1)Nc1nc(N)nc([C@H](C)Cl)n1 (mixture of isomers) [Example 4],"degree of damage, Galium","Galium; Table B-3, 2000 g of ai./ha",100%
same,"degree of damage, Setaria","Setaria [1]; Table B-3, 2000 g of ai./ha",100%
same,"degree of damage, Sinapis","Sinapis [4]; Table B-3, 2000 g of ai./ha",100%
same,"degree of damage, Alopecurus","Alopecurus; Table B-3, 2000 g of ai./ha",100%
same,"degree of damage, Abutilon","Abutilon [2]; Table B-3, 2000 g of ai./ha",100%
same,"degree of damage, Amaranthus","Amaranthus [3]; Table B-3, 2000 g of ai./ha",95%
CCC(COc1cc(C)cc(C)c1)Nc1nc(N)nc([C@@H](C)Cl)n1 (mixture of isomers) [Example 5],"degree of damage, Maize","Maize; Table B-1, 1000 g of ai./ha",20%
same,"degree of damage, Galium","Galium; Table B-1, 1000 g of ai./ha",100%
same,"degree of damage, Setaria","Setaria [1]; Table B-1, 1000 g of ai./ha",100%
same,"degree of damage, Abutilon","Abutilon [2]; Table B-1, 1000 g of ai./ha",100%
CCC(COc1ccccc1)Nc1nc(N)nc([C@H](C)Cl)n1 (mixture of isomers) [Example 7],"degree of damage, Galium","Galium; Table B-3, 1000 g of ai./ha",100%
same,"degree of damage, Setaria","Setaria [1]; Table B-3, 1000 g of ai./ha",95%
same,"degree of damage, Sinapis","Sinapis [4]; Table B-3, 1000 g of ai./ha",100%
same,"degree of damage, Alopecurus","Alopecurus; Table B-3, 1000 g of ai./ha",95%
same,"degree of damage, Abutilon","Abutilon [2]; Table B-3, 1000 g of ai./ha",100%
same,"degree of damage, Amaranthus","Amaranthus [3]; Table B-3, 1000 g of ai./ha",100%
CCC(=O)Nc1nc(NC(CC)COc2ccccc2)nc([C@H](C)Cl)n1 (mixture of isomers) [Example 9],"degree of damage, Maize","Maize; Table B-2, 1000 g of ai./ha",20%
same,"degree of damage, Sinapis","Sinapis [4]; Table B-2, 1000 g of ai./ha",100%
same,"degree of damage, Alopecurus","Alopecurus; Table B-2, 1000 g of ai./ha",95%
same,"degree of damage, Abutilon","Abutilon [2]; Table B-2, 1000 g of ai./ha",95%
same,"degree of damage, Amaranthus","Amaranthus [3]; Table B-2, 1000 g of ai./ha",100%
CCC(CCc1ccsc1)Nc1nc(N)nc([C@H](C)Cl)n1 (mixture of isomers) [Example 15],"degree of damage, Galium","Galium; Table B-3, 1000 g of ai./ha",100%
same,"degree of damage, Setaria","Setaria [1]; Table B-3, 1000 g of ai./ha",100%
same,"degree of damage, Sinapis","Sinapis [4]; Table B-3, 1000 g of ai./ha",100%
same,"degree of damage, Alopecurus","Alopecurus; Table B-3, 1000 g of ai./ha",100%
same,"degree of damage, Abutilon","Abutilon [2]; Table B-3, 1000 g of ai./ha",100%
same,"degree of damage, Amaranthus","Amaranthus [3]; Table B-3, 1000 g of ai./ha",100%
"C[C@H](Nc1nc(N)nc([C@@H](C)O)n1)c1ccccc1 [Example 1, 2-amino-4-(R)-(1-hydroxyethyl)-6-(S)-(1-phenyl-ethylamino)-1,3,5-triazine]",activity against weeds,weeds [5],strong activity
same,activity against weeds,weeds [6],strong activity
same,"degree of damage, Xanthium","Xanthium; Table A-1, 1000 g of ai./ha",95%
same,"degree of damage, Setaria","Setaria [7]; Table A-1, 1000 g of ai./ha, rated after three weeks, 0%=no effect, 100%=total destruction",90%
same,"degree of damage, Abutilon","Abutilon [8]; Table A-1, 1000 g of ai./ha",80%
same,"degree of damage, Amaranthus","Amaranthus [9]; Table A-1, 1000 g of ai./ha",100%
same,tolerance by crop plants,[10],tolerated well
C[C@H](Nc1nc(N)nc([C@@H](C)Cl)n1)c1ccccc1 [Example 18],activity against weeds,weeds [6],strong activity
same,"degree of damage, Xanthium","Xanthium; Table A-3, 1000 g of ai./ha",100%
same,"degree of damage, Setaria",Setaria [7]; [12],100%
same,"degree of damage, Sinapis",Sinapis [11],100%
same,"degree of damage, Abutilon","Abutilon [8]; Table A-3, 1000 g of ai./ha",100%
same,"degree of damage, Amaranthus","Amaranthus [9]; Table A-3, 1000 g of ai./ha",100%
CC[C@H](Nc1nc(N)nc([C@H](C)Cl)n1)c1ccccc1 [Example 22],activity against weeds,weeds [6],strong activity
same,"degree of damage, Xanthium","Xanthium; Table A-3, 1000 g of ai./ha",100%
same,"degree of damage, Setaria",Setaria [7]; [12],95%
same,"degree of damage, Sinapis",Sinapis [11],100%
same,"degree of damage, Abutilon","Abutilon [8]; Table A-3, 1000 g of ai./ha",95%
same,"degree of damage, Amaranthus","Amaranthus [9]; Table A-3, 1000 g of ai./ha",100%
CC[C@H](Nc1nc(N)nc([C@@H](C)Cl)n1)c1ccccc1 [Example 23],activity against weeds,weeds [6],strong activity
same,"degree of damage, Xanthium","Xanthium; Table A-3, 1000 g of ai./ha",100%
same,"degree of damage, Setaria",Setaria [7]; [12],80%
same,"degree of damage, Sinapis",Sinapis [11],100%
same,"degree of damage, Abutilon","Abutilon [8]; Table A-3, 1000 g of ai./ha",95%
same,"degree of damage, Amaranthus","Amaranthus [9]; Table A-3, 1000 g of ai./ha",100%
